Source: patent US20120142701A1 (priority 2010, published 2012)

Columns and labels:
[1] = system: A/WSN/33 virus; test: multicycle growth assay, viral titres by plaques assay in MDCK cells; type: cell-based, influenza A H1N1 (A/WSN/33); conditions: MDCK cells infected with A/WSN/33 at 0.001 MOI
Experimental: FIG. 3 is a plot of the antiviral activity of an aggregation-inducing agent nucleozin in multicycle growth assays. Madin-Darby Canine Kidney (MDCK) cells were infected with A/WSN/33 virus at 0.001 MOI in the presence or absence of nucleozin (0.1 or 1 μM). Viral titres were determined by plaques assay at the time indicated.

[2] = molecular target: T1, nucleoproteins (Influenza A virus, UniProt P03466); test: cell-based aggregation assay (immunofluorescence microscopy)
Text: A cell-based method for identifying compounds that promote aggregation includes:
a.) treating cells with one or more test compounds for a period of time;
b.) adding a fixing solution to stop protein translation;
c.) treating the cells with a fluorescent antibody that binds specifically to a protein, glycoprotein, or protein-nucleic acid complex;
d.) determining the presence or absence of aggregation,
wherein if aggregation is present in (d), the test compound is identified as a compound that may promote aggregation.
1. 25 μl of culture medium is added into each well of a 384-well plate followed by the addition of a test compound from a chemical library in each well. Then 25 μl of cells (6×10^3 cells/well) with undesirable physiological conditions in DMEM with 10% fetal bovine serum are seeded into each assay well. Plates are incubated at 37° C. in a 5% CO2 humid atmosphere for 1 day.
2. The supernatant is removed from each well, and washed with 50 μl of phosphate-buffered saline (PBS).
3. The PBS is aspirated off and 50 μl of a cold (4° C.) fixing solution of 3.65% formaldehyde in PBS was added to each well. The plate was incubated for 1 h at 4° C.
4. The fixing solution was aspirated off and 50 μl of 0.1% Nonidet P-40 solution in PBS was added to each well. […]
8. The aggregation of proteins, glycoproteins, or protein-nucleic acid complexes is detected by immunofluorescence microscopy.

[3] = molecular target: T1, nucleoproteins; test: cell-free aggregation assay (aggregation plate reader); type: biochemical
Experimental: A cell-free method for identifying compounds that promote aggregation of proteins, glycoproteins, or protein-nucleic acid complexes includes:
a.) combining a mixture of bovine serum albumin and one or more proteins, glycoproteins, or protein-nucleic acid complexes;
b.) adding the mixture of (a) to a multi-well plate;
c.) transferring a test compound to one or more wells of the multi-well plate;
d.) incubating the plate of (c); and
e.) determining the presence of aggregation,
wherein if aggregation is present in (e), the test compound is identified as a compound that may promote aggregation.
1. A mixture of 1 μM proteins, glycoproteins, or protein-nucleic acid complexes in 40 μg/ml bovine serum albumin is prepared.
2. A portion (20 μl) of the reaction mixture is added to each well of a 384-well mircotitre plate using automated liquid dispenser.
3. Chemicals from a chemical library are assayed by transferring approximately 100 nl to each assay well by a 384 solid pin array.
4. The plates are incubated at 37° C. for 6 hours and the extent of chemical induced aggregation is recorded by an aggregation plate reader.

[4] = system: A/Vietnam/1194/04 H5N1 virus; type: in vivo, BALB/c female mice
[5] = system: nucleoprotein; type: biochemical
[6] = molecular target: nucleoprotein (Influenza A virus, UniProt P15682); test: cellular immunofluorescence microscopy in infected A549 cells; type: cell-based, influenza A/WSN/33 virus
nucleoprotein (Influenza A virus, UniProt P15682), sequence (P15682 whole entry): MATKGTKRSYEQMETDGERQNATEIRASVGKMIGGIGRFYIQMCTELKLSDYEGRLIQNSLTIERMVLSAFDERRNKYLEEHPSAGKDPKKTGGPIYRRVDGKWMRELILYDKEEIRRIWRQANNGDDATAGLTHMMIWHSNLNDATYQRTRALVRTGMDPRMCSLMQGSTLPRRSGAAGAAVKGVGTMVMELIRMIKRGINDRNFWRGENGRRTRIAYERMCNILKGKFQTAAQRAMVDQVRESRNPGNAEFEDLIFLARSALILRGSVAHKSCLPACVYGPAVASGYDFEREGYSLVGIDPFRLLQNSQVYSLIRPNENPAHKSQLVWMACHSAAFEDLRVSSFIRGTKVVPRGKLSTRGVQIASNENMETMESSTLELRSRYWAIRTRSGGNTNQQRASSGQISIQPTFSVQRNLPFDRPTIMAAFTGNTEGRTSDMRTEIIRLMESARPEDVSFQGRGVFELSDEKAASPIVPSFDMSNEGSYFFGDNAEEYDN

T1 sequence (P03466 whole entry): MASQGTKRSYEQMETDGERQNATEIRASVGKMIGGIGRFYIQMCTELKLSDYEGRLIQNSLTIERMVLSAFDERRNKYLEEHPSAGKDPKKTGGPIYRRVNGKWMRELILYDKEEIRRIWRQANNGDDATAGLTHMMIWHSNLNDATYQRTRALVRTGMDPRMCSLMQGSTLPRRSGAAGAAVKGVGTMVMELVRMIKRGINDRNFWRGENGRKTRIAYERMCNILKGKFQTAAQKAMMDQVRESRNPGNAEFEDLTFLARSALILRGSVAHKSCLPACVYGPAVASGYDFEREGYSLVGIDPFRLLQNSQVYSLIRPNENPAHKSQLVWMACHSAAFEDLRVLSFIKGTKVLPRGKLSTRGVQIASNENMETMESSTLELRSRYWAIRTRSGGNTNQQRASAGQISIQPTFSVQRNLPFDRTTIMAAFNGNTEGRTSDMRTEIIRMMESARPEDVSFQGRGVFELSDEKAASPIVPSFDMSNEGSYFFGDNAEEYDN

For nucleozin, the “viral growth (viral titres)” value ([1]; nucleozin 0.1 μM) was “suppressed viral growth”, the “virus production (viral titres)” value ([1]; nucleozin at 1 (unit cut off in the text)) was “completely inhibited virus production” and the aggregation of nucleoproteins [2] was “aggregation of nucleoproteins was observed”. For the same substance, the aggregation of nucleoproteins [3] was “aggregation of nucleoproteins was observed”, the “survival rate versus untreated controls” value ([4]; mice after inoculation by influenza A virus H5N1 strain A/Vietnam/1194/04) was “significantly higher survival rate” and the “animals surviving for more than 21 days” value ([4]; mice, two doses of nucleozin (250 nmole per dose) per day i.p. for 5 days, H5N1 A/Vietnam/1194/04 i.n.) was 90%. The “amount of nucleoprotein running into the native gradient gel” value [5] was “reduces the amount of nucleoprotein running into the native gradient gel in a dose-dependent manner”, the “nucleoprotein-RNA complex that runs into the 4-12% polyacrylamide gradient gel” value [5] was “dose-dependent reduction” and the “nucleoprotein localisation at 3 hours post infection” value ([6]; influenza A/WSN/33, 3 hours post infection) was ““halo” of dense nucleoprotein aggregates surrounding the perinuclear region in the cytoplasm”. The “nucleoprotein localisation at 24 hours after infection” value ([6]; influenza A/WSN/33, 24 hours after infection) was “nucleoprotein trapped in the cytoplasm was seen scattered randomly in host cells” and the “nucleoprotein accumulation in the nucleus” value ([6]; influenza A/WSN/33 virus infection) was “potent antagonist of nucleoprotein accumulation in the nucleus”.
